The target of assay [1] is T1, PIP4K 2A (Homo sapiens, UniProt P48426).
T1 sequence (P48426 1-406): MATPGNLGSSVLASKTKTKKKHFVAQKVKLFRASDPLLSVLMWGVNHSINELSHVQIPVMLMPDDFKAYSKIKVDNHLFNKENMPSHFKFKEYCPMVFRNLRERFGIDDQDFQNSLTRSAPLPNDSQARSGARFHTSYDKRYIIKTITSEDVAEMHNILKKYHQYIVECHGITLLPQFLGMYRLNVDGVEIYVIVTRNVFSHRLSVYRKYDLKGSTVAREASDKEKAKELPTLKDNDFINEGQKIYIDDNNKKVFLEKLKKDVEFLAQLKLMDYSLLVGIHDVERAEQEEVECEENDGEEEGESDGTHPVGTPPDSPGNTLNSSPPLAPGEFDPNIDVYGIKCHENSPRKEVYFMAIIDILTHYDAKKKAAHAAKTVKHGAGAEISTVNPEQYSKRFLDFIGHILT
In words: ADP-glo kinase assay PIP4K 2A. The class given is biochemical. More on the design: 4 nM PIP4K2A (full length protein, SignalChem); purchased SignalChem. The settings on record: compounds listed under IC50 bin headings. Here is the method:
Dilution series of the compounds were prepared in DMSO at 100 times the final assay concentration (n1=n0/3 in 10 points). The compounds were further diluted to three times the assay concentration in assay buffer (20 mM MOPS pH 7.2, 25 mM magnesium chloride, 0.005% Tween 20). 6 μL of the diluted compounds were added to a 384 well assay plate followed by 9 μL of a mix consisting of 4 nM PIP4K2A (full length protein, SignalChem) and 100 μM PI(5)P diC8 (Tebu-Bio). Enzyme and compounds were pre-incubated at room temperature for 15 minutes.
Then 3 μL of a solution containing 60 μM ATP (Promega) in assay buffer was added to the wells containing compound and enzyme and mixing was performed by pipetting several times. The reaction was incubated at room temperature for 1 h. Then 18 μL of ADP-Glo™ Reagent (Promega) was added to stop the kinase reaction and deplete the unconsumed ATP, mixing was performed by pipetting several times. The plate was incubated at room temperature for 40 minutes before addition of 36 μL of Kinase Detection Reagent (Promega) to convert ADP to ATP and introduce luciferase and luciferin to detect ATP. The reaction was incubated at room temperature for 40 minutes before the luminescence was measured in a in a Victor 3V 1420 multilabel counter (Perkin Elmer).
Percent inhibition of the compounds as compared to dimethyl sulfoxide treated control samples was calculated. Compound concentration versus percent inhibition were fitted to generate IC50 values.
(In general: ADP-Glo turns the ADP formed in a reaction into a luminescent signal.)

The target in assay [2] is T2, PIP4K2B (Homo sapiens, UniProt P78356).
T2 construct: made in house; host or cells: E. coli
T2 sequence (P78356 1-416): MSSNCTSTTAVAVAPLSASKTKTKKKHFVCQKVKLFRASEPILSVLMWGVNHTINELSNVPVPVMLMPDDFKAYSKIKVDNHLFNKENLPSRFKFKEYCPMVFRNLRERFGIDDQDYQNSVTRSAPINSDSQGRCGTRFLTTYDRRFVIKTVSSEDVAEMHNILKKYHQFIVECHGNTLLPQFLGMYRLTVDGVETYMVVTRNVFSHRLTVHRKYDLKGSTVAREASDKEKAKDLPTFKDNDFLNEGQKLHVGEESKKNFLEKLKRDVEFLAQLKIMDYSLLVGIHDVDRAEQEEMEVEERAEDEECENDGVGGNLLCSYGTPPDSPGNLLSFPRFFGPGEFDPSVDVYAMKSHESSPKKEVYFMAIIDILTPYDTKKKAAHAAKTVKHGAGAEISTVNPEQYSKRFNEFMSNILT
In words: Trans-FI P kinase assay PIP4K2B (PIP4KtypeIIB inhibition assay). The class given is biochemical. Conditions: compounds listed under IC50 bin headings; 100 uM GTP; read-out: Trans-FI P kinase assays: PIP4K2B IC50. From the text: GST tagged PIP4KtypeIIA and B enzymes were overexpressed in E. Coli and purified to >80% homogeneity. Phosphatidyl inositol-5-phosphate (PI5P, Cat. #850152, Avanti Polar Lipids Inc.) was used as the lipid substrate and phosphatidyl ethanolamine (DOPE 18:1, Cat. #850725, Avanti Polar Lipids Inc.) was used as the carrier lipid for assays. Ultrapure ATP and GTP was purchased from Bellbrooke Labs. ADP Glo reagents were obtained from Promega. Transcreener FI reagent was obtained from Bellbrooke labs.
GST-tagged PIP4KtypeIIB (3.4 uL, 2.77 mg/mL) was diluted to 5 mL using HNE buffer to yield 5× enzyme stock (25 nM)
Lipid Preparation: In a 10 mL pyrex glass vial, 1 ug of PI5P and 1 ug of DOPE were suspended in 2.5 mL of HEPES buffer mix and 2.5 mL of H:E buffer. The contents were mixed and sonicated for 3 min to yield a translucent lipid stock.
Compound Preparation: Compounds were stored as 5 mM stocks in neat DMSO as room temperature in glass vials. 5 mM stocks were diluted to 2 mM and then serially diluted (3×) in neat DMSO in 96 well polypropylene plates. From the serially diluted stocks, 3 uL was delivered into 250 uL of 25% DMSO (in water) to generate 5× compound stocks. Typically, the highest compound conc. was 24 uM.
The assay volume was kept at 25 uL. To each well of the reaction plate, 10 uL of lipid stock (1:1 ratio PI5P:DOPE) was delivered. This was followed by the addition of 5 uL of compound in 25% DMSO. Then, to each well, 5 uL of 25 nM (5×) typeIIB enzyme was delivered. The contents were mixed well and incubated for 1 h at 27 C. After 1 h, reaction was initiated by adding 5 uL of 500 uM GTP and the contents were mixed well with a multi-channel pipetteman. The final concentration of the reagents are as follows: 50 mM HEPES, pH 7.3, 10 mM MgCl2, 20 mM NaCl, 0.01% v/v triton-X100, 5% DMSO, 100 uM GTP, 80 uM (2 ug) PI5P, 2 ug DOPE, and 5 nM PIP4KIIB Typically, the highest conc. of compounds was 4.8 uM and the lowest conc. was 0.
After 2 h, the reaction was quenched by adding 25 uL of transcreener FI reagent. The contents were incubated at RT for 1 h and the Fluorescence (Ex: 584 Em: 623) was read using Molecular Devices Paradigm plate reader. […] The blanks were averaged and subtracted from all other wells. Using a calibration curve, RFU was converted to uM GDP (product). IC50 was calculated by plotting the residual activity (expressed as % No inhibitor control) vs. log [Inh. conc.]

For the compound `CN(C)C/C=C/C(=O)Nc1cccc(CCC(=O)Nc2cncc(Nc3cc4c(cn3)-c3ccc(N5CCCC5=O)cc3OC4(C)C)c2)c1` [Example 199, (E)-N-(3-(3-((5-((5,5-dimethyl-8-(2-oxopyrrolidin-1-yl)-5H-chromeno[4,3-c]pyridin-3-yl)amino)pyridin-3-yl)amino)-3-oxopropyl)phenyl)-4-(dimethylamino)but-2-enamide], the IC50 – broadly, the midpoint of a concentration-inhibition curve – in assay [1] is 1 to 10 nM; in assay [2] it was 10 to 100 nM.

Consider `CC1Oc2cc(N3CCCC3=O)ccc2-c2cnc(Nc3cnc4c(c3)N3C(=O)[C@](C)(O)C[C@H]3CO4)cc21` (stereo partly drawn) [Example 205, (6aS,8R)-8-hydroxy-8-methyl-2-((5-methyl-8-(2-oxopyrrolidin-1-yl)-5H-chromeno[4,3-c]pyridin-3-yl)amino)-6,6a,7,8-tetrahydro-9H-pyrido[2,3-b]pyrrolo[1,2-d][1,4]oxazin-9-one], for which the IC50 in assay [1] and in assay [2] was 10 to 100 nM each time.

As for `CC1Oc2cc(N3CCCC3=O)ccc2-c2cnc(Nc3cncc(NC(=O)c4ccc5c(c4)COB5O)c3)cc21` (stereo not shown) [Example 116, 1-hydroxy-N-(5-((5-methyl-8-(2-oxopyrrolidin-1-yl)-5H-chromeno[4,3-c]pyridin-3-yl)amino)pyridin-3-yl)-1,3-dihydrobenzo[c][1,2]oxaborole-5-carboxamide], the IC50 was at most 1 nM in assay [1] and 10 to 100 nM in assay [2].

As for `COCCC(=O)N1CCN(c2cncc(Nc3cc4c(cn3)-c3ccc(N5CCCC5=O)cc3OC4)c2)CC1` [Example 168, 1-(3-((5-(4-(3-methoxypropanoyl)piperazin-1-yl)pyridin-3-yl)amino)-5H-chromeno[4,3-c]pyridin-8-yl)pyrrolidin-2-one], the IC50 in assay [1] and in assay [2] was 10 to 100 nM each time.

As for `CC1C[C@H]2COc3ncc(Nc4cc5c(cn4)-c4cc(F)c(N6CCCC6=O)cc4OC5C)cc3N2C1=O` (stereo partly drawn) [Example 152, (6aS)-2-((9-fluoro-5-methyl-8-(2-oxopyrrolidin-1-yl)-5H-chromeno[4,3-c]pyridin-3-yl)amino)-8-methyl-6,6a,7,8-tetrahydro-9H-pyrido[2,3-b]pyrrolo[1,2-d][1,4]oxazin-9-one], the IC50 is at most 1 nM in assay [1] and 1 to 10 nM in assay [2].

As for `CC1Oc2cc(N3CCCC3=O)ccc2-c2cnc(Nc3cncc(N4CCN(Cc5cccc(NC(=O)CNC(=O)/C=C/CN(C)C)c5)C4=O)c3)cc21` (stereo not shown) [Example 178, (E)-4-(dimethylamino)-N-(2-((3-((3-(5-((5-methyl-8-(2-oxopyrrolidin-1-yl)-5H-chromeno[4,3-c]pyridin-3-yl)amino)pyridin-3-yl)-2-oxoimidazolidin-1-yl)methyl)phenyl)amino)-2-oxoethyl)but-2-enamide], the results for the IC50 in assay [1] and in assay [2] were at most 1 nM and 1 to 10 nM, respectively.

Take `CC(CC(=O)Nc1cncc(Nc2cc3c(cn2)-c2ccc(N4CCCC4=O)cc2OC3C)c1)c1ccccc1` (stereo not shown) [Example 132, N-(5-((5-methyl-8-(2-oxopyrrolidin-1-yl)-5H-chromeno[4,3-c]pyridin-3-yl)amino)pyridin-3-yl)-3-phenylbutanamide]: the IC50 is 1 to 10 nM in assay [1] and 10 to 100 nM in assay [2].

`CC1Oc2cc(N3CCCC3=O)ccc2-c2cnc(Nc3cncc(NC(=O)c4cccc(F)c4)c3)cc21` (stereo not shown) [Example 120, 3-fluoro-N-(5-((5-methyl-8-(2-oxopyrrolidin-1-yl)-5H-chromeno[4,3-c]pyridin-3-yl)amino)pyridin-3-yl)benzamide]: the values for the IC50 in assay [1] and in assay [2] were 1 to 10 nM and above 1000 nM, respectively.

On to `CC1(C)Oc2cc(N3CCCC3=O)ccc2-c2cnc(Nc3cncc(N4CCNC4=O)c3)cc21` [Example 162, 1-(5-((5,5-dimethyl-8-(2-oxopyrrolidin-1-yl)-5H-chromeno[4,3-c]pyridin-3-yl)amino)pyridin-3-yl)imidazolidin-2-one], for which the IC50 in assay [1] fell in the range of 1 to 10 nM; in assay [2], 10 to 100 nM.

Take `CC1Oc2cc(N3CCCC3=O)ccc2-c2cnc(Nc3cncc(NC(=O)c4ccc(NC(=O)/C=C/CN(C)C)cc4)c3)cc21` (stereo not shown) [Example 174, (E)-4-(4-(dimethylamino)but-2-enamido)-N-(5-((5-methyl-8-(2-oxopyrrolidin-1-yl)-5H-chromeno[4,3-c]pyridin-3-yl)amino)pyridin-3-yl)benzamide]: the IC50 in assay [1] was 1 to 10 nM; in assay [2], 10 to 100 nM.

On to `CC1Oc2cc(N3CCCC3=O)ccc2-c2cnc(Nc3cncc(NC(=O)Cc4ccccc4)c3)cc21` (stereo not shown) [Example 107, N-(5-((5-methyl-8-(2-oxopyrrolidin-1-yl)-5H-chromeno[4,3-c]pyridin-3-yl)amino)pyridin-3-yl)-2-phenylacetamide], for which the IC50 in assay [1] lay within 1 to 10 nM; in assay [2], 10 to 100 nM.

On to `CC1Oc2cc(N3CCCC3=O)ccc2-c2cnc(Nc3cncc(NC(=O)c4cc5ccccn5n4)c3)cc21` (stereo not shown) [Example 140, N-(5-((5-methyl-8-(2-oxopyrrolidin-1-yl)-5H-chromeno[4,3-c]pyridin-3-yl)amino)pyridin-3-yl)pyrazolo[1,5-a]pyridine-2-carboxamide], for which the IC50 in assay [1] fell in the range of 1 to 10 nM; in assay [2] it was 10 to 100 nM.

`CC1(C)Oc2cc(N3CCCC3=O)c(F)cc2-c2cnc(Nc3cnc4c(c3)N3C(=O)CC[C@@H]3CO4)cc21` [Example 184, (R)-2-((9-fluoro-5,5-dimethyl-8-(2-oxopyrrolidin-1-yl)-5H-chromeno[4,3-c]pyridin-3-yl)amino)-6,6a,7,8-tetrahydro-9H-pyrido[2,3-b]pyrrolo[1,2-d][1,4]oxazin-9-one]: the IC50 was at most 1 nM in assay [1] and 1 to 10 nM in assay [2].

Regarding `CC(Cc1ccccc1)C(=O)Nc1cncc(Nc2cc3c(cn2)-c2ccc(N4CCCC4=O)cc2OC3C)c1` (stereo not shown) [Example 133, 2-methyl-N-(5-((5-methyl-8-(2-oxopyrrolidin-1-yl)-5H-chromeno[4,3-c]pyridin-3-yl)amino)pyridin-3-yl)-3-phenylpropanamide], the IC50 in assay [1] fell in the range of 1 to 10 nM; in assay [2], 10 to 100 nM.
